Data from publication PMC4308083, “Cytokine-Induced Loss of Glucocorticoid Function: Effect of Kinase Inhibitors, Long-Acting β2-Adrenoceptor Agonist and Glucocorticoid Receptor Ligands” (PLoS ONE, 2015).

Experiments:
2×GRE reporter = assay: Modulation of dexamethasone/NR3C1 ligand-induced 2×GRE reporter activation (kinase inhibitors, TNF, formoterol) in BEAS-2B cells; type: cell-based, human; conditions: for 2×GRE reporter induction restored in presence of TNF, % of that induced by dexamethasone: 10 μM inhibitor 30 min pre-treatment, 6 h (Fig. 3A); for 2×GRE reporter induction restored in presence of TNF, % of that induced by dexamethasone / TNF-induced repression reversed to % of the response to dexamethasone / EC50: TNF 10 ng/ml; for Effect on dexamethasone-induced 2×GRE reporter activation (concentration-response): 30 min pre-treatment, 6 h (Fig. 3B, Fig. 4), JNK inhibitor VIII only at 30 μM, PKC inhibitors above 1 μM; for TNF-induced repression reversed to % of the response to dexamethasone: concentration-response, repression ~60% without inhibitor; for TNF-induced repression reversed to % of the response to dexamethasone / EC50: 6 h (Fig. 3B); for EC50: read-out: EC50 for reversal of TNF-induced repression of 2×GRE reporter; for 2×GRE reporter induction restored in presence of TNF, % of that induced by dexamethasone / Effect on dexamethasone-induced 2×GRE reporter activation (concentration-response) / TNF-induced repression reversed to % of the response to dexamethasone / EC50: dexamethasone
Protocol: BEAS-2B cells stably transfected with a glucocorticoid response element (2×GRE) driven luciferase reporter plasmid, pGL3.neo.TATA.neo [23], were cultured in medium containing 0.25 mg/ml G-418 (Promega, Madison, WI). Cells were grown to confluence in 24 or 48 well plates and incubated overnight in serum-free media prior to experiments. Cells were harvested in reporter lysis buffer and luciferase assays performed according to the manufacturer’s instructions (Firefly Luciferase Assay Kit; Biotium; Hayward, CA) using a 20/20n luminometer (Promega).
Data (n = 7), expressed as a percentage of Dex activation, are plotted as means ± S.E. BEAS-2B 2×GRE cells were pre-treated for 30 min with the indicated concentrations of B. PS or JNK or C. JNK in the presence or absence of 10 μM PS, before addition of 10 ng/ml TNF. After 1 h, 10 μM Dex was added and cells harvested 6 h later for luciferase assay. […] D+T indicates Dex plus TNF treatment.
Data (n = 3–4), expressed as fold activation, are plotted as means ± S.E. D+T indicates Dex plus TNF treatment.
Cells were harvested after 6 h for luciferase assays. Data (n = 7), expressed as fold activation, are plotted as means ± S.E. Lines of best fit were added in panel B. Statistical analyses were performed by ANOVA with a Dunnett’s test comparing each NR3C1 ligand alone versus in the presence of TNF and/or Form. *, P<0.05; **, P<0.01; ***, P<0.001.

[1] = system: CDKN1C, DUSP1, RGS2 and TSC22D3 mRNA in BEAS-2B cells; assay: RT-PCR of glucocorticoid-inducible gene expression in BEAS-2B cells; conditions: for Effect on dexamethasone-induced mRNA expression of CDKN1C, DUSP1, RGS2, TSC22D3 in absence or presence of TNF: JNK inhibitor VIII 3 or 10 μM, PS-1145 10 μM, 6 h (Fig. 7)
[2] = system: JUN (c-Jun) phosphorylation; assay: Western blot of TNF-induced JUN phosphorylation in BEAS-2B cells; type: cell-based, human; conditions: 30 min pre-treatment, TNF 10 ng/ml 15 min, western blot (S1 Fig.), read-out: EC50 for decrease of TNF-induced JUN phosphorylation
Excerpt: (§1) Cells were lysed in 1× Laemmli buffer supplemented with phosphatase inhibitors (Sigma-Aldrich) and 1× complete protease inhibitor cocktail (Roche; Indianapolis, IN), size fractionated on 12% acrylamide gels and subsequently electro-transferred onto Hybond enhanced chemiluminescent membranes (GE Healthcare; Waukesha, WI). Membranes were blocked in 5% milk in tris-buffered saline containing 1% tween 20 and probed with antibodies against phospho-jun proto-oncogene (pJUN; pc-Jun) (9164; Cell Signaling Technology; Danvers, MA), nuclear factor of kappa light polypeptide gene enhancer in B-cells inhibitor, alpha (NFKBIA; IκBα) (sc-371; Santa Cruz Biotechnology; Dallas, TX), phospho-NFKBIA (9246; Cell Signaling Technology), phospho-AKT1 (9271S; Cell Signaling Technology), AKT (9272S; Cell Signaling Technology) and GAPDH (4699–9555(ST); AbD Serotec; Raleigh, NC). After washing, membranes were incubated with horseradish peroxidase-conjugated anti-rabbit (111–035–003; Jackson ImmunoResearch Laboratories Inc; West Grove, PA) or anti-mouse immunoglobulin (115–035–003; Jackson ImmunoResearch Laboratories Inc). Detection was by enhanced chemiluminescence (Pierce ECL Western Blotting Substrate; Thermo Fisher Scientific Inc.; Rockford, IL) and visualization by autoradiography. […]

AKT1 phosphorylation = assay: Western blot of AKT1 phosphorylation in BEAS-2B cells; type: cell-based; conditions: Homo sapiens, 30 min pre-treatment, TNF 10 ng/ml 30 min, western blot (S2 Fig.), read-out: EC50 for block of AKT1 phosphorylation
Excerpt: Cells were lysed in 1× Laemmli buffer supplemented with phosphatase inhibitors (Sigma-Aldrich) and 1× complete protease inhibitor cocktail (Roche; Indianapolis, IN), size fractionated on 12% acrylamide gels and subsequently electro-transferred onto Hybond enhanced chemiluminescent membranes (GE Healthcare; Waukesha, WI). Membranes were blocked in 5% milk in tris-buffered saline containing 1% tween 20 and probed with antibodies against phospho-jun proto-oncogene (pJUN; pc-Jun) (9164; Cell Signaling Technology; Danvers, MA), nuclear factor of kappa light polypeptide gene enhancer in B-cells inhibitor, alpha (NFKBIA; IκBα) (sc-371; Santa Cruz Biotechnology; Dallas, TX), phospho-NFKBIA (9246; Cell Signaling Technology), phospho-AKT1 (9271S; Cell Signaling Technology), AKT (9272S; Cell Signaling Technology) and GAPDH (4699–9555(ST); AbD Serotec; Raleigh, NC). After washing, membranes were incubated with horseradish peroxidase-conjugated anti-rabbit (111–035–003; Jackson ImmunoResearch Laboratories Inc; West Grove, PA) or anti-mouse immunoglobulin (115–035–003; Jackson ImmunoResearch Laboratories Inc). Detection was by enhanced chemiluminescence (Pierce ECL Western Blotting Substrate; Thermo Fisher Scientific Inc.; Rockford, IL) and visualization by autoradiography.
Cells were harvested after 30 min for western blotting and probed for phospho v-akt murine thymoma viral oncogene homolog 1 (pAKT1), AKT1 and glyceraldehyde 3-phosphate dehydrogenase (GAPDH). (PDF) Click here for additional data file.

[3] = system: NFKBIA (IκBα) phosphorylation; assay: Western blot of TNF-induced NFKBIA phosphorylation in BEAS-2B cells; type: cell-based, human; conditions: 30 min pre-treatment, TNF 2 min, western blot (S1 Fig.), read-out: EC50 for reduction of TNF-induced NFKBIA phosphorylation
Excerpt: as §1

[4] = system: TSC22D3 mRNA in primary ASM cells; assay: RT-PCR of dexamethasone-inducible gene expression in primary human airway smooth muscle (ASM) cells; type: cell-based; conditions: TNF 10 ng/ml or IL1B 1 ng/ml, 1 μM dexamethasone, 6 h
[5] = system: TSC22D3 mRNA in primary HBE cells; assay: RT-PCR of dexamethasone-inducible gene expression in primary human bronchial epithelial (HBE) cells; type: cell-based; conditions: TNF 10 ng/ml (at 1 h) or IL1B 1 ng/ml (at 18 h), 1 μM dexamethasone

EC50 (2×GRE reporter) [µM]	EC50 (AKT1 phosphorylation) [µM]	Compound	2×GRE reporter induction restored in presence of TNF, % of that induced by dexamethasone (2×GRE reporter) [%]	Effect on dexamethasone-induced 2×GRE reporter activation (concentration-response) (2×GRE reporter)	TNF-induced repression reversed to % of the response to dexamethasone (2×GRE reporter) [%]	Effect on dexamethasone-induced mRNA expression of CDKN1C, DUSP1, RGS2, TSC22D3 in absence or presence of TNF [1]	other results
1.6	–	CCOc1nc(NC(=O)Cc2cc(OC)ccc2OC)cc(N)c1C#N [JNK inhibitor VIII]	77	modestly enhanced	87	no significant effect	EC50 [2]: ~0.3 µM
–	~0.9	O=c1cc(N2CCOCC2)oc2c(-c3ccccc3)cccc12 [LY294002, 2-(4-morpholinyl)-8-phenyl-4H-1-benzopyran-4-one]	–	less effect	–	–	–
–	~0.07	Oc1cccc(-c2nc(N3CCOCC3)c3oc4ncccc4c3n2)c1 [PI103]	–	concentration-dependently reduced	–	–	–
0.6	–	O=C(Nc1cc(Cl)cc2c1[nH]c1cnccc12)c1cccnc1 [PS-1145]	73	no effect	76	no significant effect	EC50 [3]: ~1 µM; Additional effect of 10 μM PS-1145 on 2×GRE reporter activity with JNK inhibitor VIII (2×GRE reporter; up to 10 μM JNK inhibitor VIII, TNF, dexamethasone (Fig. 3C)): no obvious additional effect; Effect on DUSP1 mRNA expression with dexamethasone plus TNF plus formoterol ([1]; 10 μM PS-1145, 6 h (Fig. 7)): significantly enhanced
–	–	IL1B: pro-inflammatory cytokine interleukin-1β (R&D systems), used at 1 ng/ml	–	–	–	–	Repression of dexamethasone-induced TSC22D3 expression [4]: 43%; Maximal repression of dexamethasone-induced TSC22D3 expression [5]: 62%

Compound	EC50 (2×GRE reporter) [µM]	EC50 (AKT1 phosphorylation) [µM]	2×GRE reporter induction restored in presence of TNF, % of that induced by dexamethasone (2×GRE reporter) [%]	Effect on dexamethasone-induced 2×GRE reporter activation (concentration-response) (2×GRE reporter)	TNF-induced repression reversed to % of the response to dexamethasone (2×GRE reporter) [%]	Effect on dexamethasone-induced mRNA expression of CDKN1C, DUSP1, RGS2, TSC22D3 in absence or presence of TNF [1]	other results
COC[C@H]1OC(=O)c2coc3c2[C@@]1(C)C1=C(C3=O)[C@@H]2CCC(=O)[C@@]2(C)C[C@H]1OC(C)=O [wortmannin]	–	~0.02	–	concentration-dependently reduced	–	–	–
